Data taken from article PMC7366380, “Discovery of a Potent and Selective Covalent Inhibitor and Activity-Based Probe for the Deubiquitylating Enzyme UCHL1, with Antifibrotic Activity” (Journal of the American Chemical Society, 2020).
“And” between values parts separate entries of the source, which are not always exact repeats. Equal entries are not always repeated.

What was measured:
[1] = target: T1, DUBs and other proteins in HEK293 cells (Homo sapiens, UniProt P40818); assay: In-cell proteome-wide competitive ABPP, HEK293: other DUBs and proteins; settings: for Log2 reporter intensity values: USP8: competition with ABP 2, DMSO substract (FC), replicates A-B; for Log2 reporter intensity values: USP8, DMSO subtracted
T1 sequence (P40818 1-1118): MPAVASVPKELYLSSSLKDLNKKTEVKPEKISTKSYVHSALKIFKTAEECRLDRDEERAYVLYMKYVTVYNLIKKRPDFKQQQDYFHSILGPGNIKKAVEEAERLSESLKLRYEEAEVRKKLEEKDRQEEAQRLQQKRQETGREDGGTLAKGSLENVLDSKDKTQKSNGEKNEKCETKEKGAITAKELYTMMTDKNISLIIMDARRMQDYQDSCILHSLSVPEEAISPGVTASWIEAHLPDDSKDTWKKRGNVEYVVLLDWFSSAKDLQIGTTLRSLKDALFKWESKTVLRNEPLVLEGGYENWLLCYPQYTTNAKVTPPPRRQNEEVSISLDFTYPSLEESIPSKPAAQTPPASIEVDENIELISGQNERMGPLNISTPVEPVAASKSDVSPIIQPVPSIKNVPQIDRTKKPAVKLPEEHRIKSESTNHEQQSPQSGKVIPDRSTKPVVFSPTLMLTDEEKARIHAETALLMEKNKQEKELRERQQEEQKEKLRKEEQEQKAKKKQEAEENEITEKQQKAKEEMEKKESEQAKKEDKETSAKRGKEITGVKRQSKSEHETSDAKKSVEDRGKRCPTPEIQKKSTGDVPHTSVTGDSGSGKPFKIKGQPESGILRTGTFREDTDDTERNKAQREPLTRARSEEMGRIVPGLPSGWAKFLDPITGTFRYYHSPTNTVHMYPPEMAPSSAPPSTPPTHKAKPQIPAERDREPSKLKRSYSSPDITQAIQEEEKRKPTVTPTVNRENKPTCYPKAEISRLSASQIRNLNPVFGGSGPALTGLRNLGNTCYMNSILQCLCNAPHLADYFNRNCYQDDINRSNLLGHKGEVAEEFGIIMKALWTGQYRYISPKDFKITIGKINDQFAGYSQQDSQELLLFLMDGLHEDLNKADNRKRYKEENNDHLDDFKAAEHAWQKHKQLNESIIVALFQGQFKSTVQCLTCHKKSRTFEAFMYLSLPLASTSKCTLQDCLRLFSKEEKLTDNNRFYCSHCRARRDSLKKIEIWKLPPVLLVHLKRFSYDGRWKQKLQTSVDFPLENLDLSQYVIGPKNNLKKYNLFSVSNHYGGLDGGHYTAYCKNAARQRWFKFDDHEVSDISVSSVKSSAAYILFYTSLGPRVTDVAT

[2] = target: T2, DUBs and other proteins in HEK293 cells (Homo sapiens, UniProt Q96K76); assay: as above; settings: replicates A-C; for Log2 reporter intensity values: USP47: DMSO substract (FC); for Log2 reporter intensity values: USP47, DMSO subtracted
T2 sequence (Q96K76 1-1375): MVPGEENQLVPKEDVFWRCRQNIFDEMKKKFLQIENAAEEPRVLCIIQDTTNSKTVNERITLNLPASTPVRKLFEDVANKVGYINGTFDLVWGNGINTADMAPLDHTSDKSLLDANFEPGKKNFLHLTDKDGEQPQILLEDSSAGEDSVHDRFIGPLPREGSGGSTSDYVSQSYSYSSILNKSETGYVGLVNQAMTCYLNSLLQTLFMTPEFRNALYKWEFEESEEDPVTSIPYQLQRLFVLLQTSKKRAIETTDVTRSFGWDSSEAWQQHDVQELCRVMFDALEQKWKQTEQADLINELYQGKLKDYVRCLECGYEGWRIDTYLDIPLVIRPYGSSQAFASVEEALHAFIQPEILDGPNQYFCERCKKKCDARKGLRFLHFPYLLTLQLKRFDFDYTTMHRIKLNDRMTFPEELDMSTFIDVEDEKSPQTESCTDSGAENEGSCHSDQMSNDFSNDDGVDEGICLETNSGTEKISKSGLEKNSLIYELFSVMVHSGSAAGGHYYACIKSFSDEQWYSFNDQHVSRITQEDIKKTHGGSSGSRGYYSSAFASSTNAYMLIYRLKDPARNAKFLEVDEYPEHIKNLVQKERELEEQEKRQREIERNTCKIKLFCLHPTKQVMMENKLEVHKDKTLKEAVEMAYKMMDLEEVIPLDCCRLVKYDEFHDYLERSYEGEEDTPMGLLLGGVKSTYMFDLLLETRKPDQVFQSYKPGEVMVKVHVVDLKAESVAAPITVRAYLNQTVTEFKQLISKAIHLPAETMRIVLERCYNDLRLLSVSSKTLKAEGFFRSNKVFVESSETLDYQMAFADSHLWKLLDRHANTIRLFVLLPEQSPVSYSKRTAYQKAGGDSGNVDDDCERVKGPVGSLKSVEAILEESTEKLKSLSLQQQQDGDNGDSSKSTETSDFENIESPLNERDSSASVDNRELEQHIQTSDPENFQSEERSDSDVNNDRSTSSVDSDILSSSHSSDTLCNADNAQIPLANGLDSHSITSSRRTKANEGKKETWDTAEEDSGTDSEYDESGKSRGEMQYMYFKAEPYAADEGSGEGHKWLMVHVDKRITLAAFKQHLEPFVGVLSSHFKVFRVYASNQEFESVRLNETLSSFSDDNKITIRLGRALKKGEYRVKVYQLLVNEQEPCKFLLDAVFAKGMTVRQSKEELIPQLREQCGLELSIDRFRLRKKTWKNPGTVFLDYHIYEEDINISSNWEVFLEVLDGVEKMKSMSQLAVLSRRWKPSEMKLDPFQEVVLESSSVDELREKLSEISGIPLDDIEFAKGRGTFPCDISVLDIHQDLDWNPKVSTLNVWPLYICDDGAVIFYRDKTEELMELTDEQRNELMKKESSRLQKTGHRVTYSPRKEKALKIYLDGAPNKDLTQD

## N#CN1CCC[C@H]1C(=O)N1CCc2c(-c3c[nH]c4ncccc34)cccc21 [Compound 1]
[1]; 1 at 1 μM
  Log2 reporter intensity values: USP8: 0.9851 and 0.9804
[1]; 1 at 4 μM
  Log2 reporter intensity values: USP8: 1.1 and 1.102
[1]; 1_1 μM, replicates A-B (C NaN)
  Log2 reporter intensity values: -0.01738 and -0.02201
[1]; 1_4 μM, replicates A-B (C NaN)
  Log2 reporter intensity values: 0.09749 and 0.0991
[1]; 1 at 1 μM, replicates A-C
  Log2 reporter intensity values: -0.0217 and -0.0285
[1]; 1 at 4 μM, replicates A-C
  Log2 reporter intensity values: 0.1374 and 0.1395
[2]; 1 at 1 μM, competition with ABP 2
  Log2 reporter intensity values: USP47: 0.973 and 1.08 and 1.022
[2]; 1 at 4 μM, competition with ABP 2
  Log2 reporter intensity values: USP47: 1.072 and 1.012 and 0.9583
[2]; 1_1 μM
  Log2 reporter intensity values: -0.02716 and 0.07955 and 0.02151
[2]; 1_4 μM
  Log2 reporter intensity values: 0.07173 and 0.01208 and -0.04184
[2]; 1 at 1 μM
  Log2 reporter intensity values: -0.03956 and 0.1106 and 0.03085
[2]; 1 at 4 μM
  Log2 reporter intensity values: 0.1001 and 0.01747 and -0.0615

## C#Cc1cnc2[nH]cc(-c3cccc4c3CCN4C(=O)[C@@H]3CCCN3C#N)c2c1 [Compound 2]
[2]; 20 nM ABP 2 alone
  Log2 reporter intensity values: USP47: 0.9076 and 0.9784 and 0.8828
[2]; 20 nM ABP 2
  Log2 reporter intensity values: -0.1398 and -0.03153 and -0.1799 and -0.09247 and -0.02173 and -0.1173

## N#CN1CCC[C@@H]1C(=O)N1CCc2c(-c3c[nH]c4ncccc34)cccc21 [Compound 3]
[1]; 3 at 1 μM
  Log2 reporter intensity values: USP8: 0.95 and 1.134
[1]; 3 at 4 μM
  Log2 reporter intensity values: USP8: 0.8355 and 0.9159
[1]; 3_1 μM, replicates A-B (C NaN)
  Log2 reporter intensity values: -0.05241 and 0.1313
[1]; 3_4 μM, replicates A-B (C NaN)
  Log2 reporter intensity values: -0.167 and -0.08651
[1]; 3 at 1 μM, replicates A-C
  Log2 reporter intensity values: -0.07394 and 0.1811
[1]; 3 at 4 μM, replicates A-C
  Log2 reporter intensity values: -0.2593 and -0.1267
[2]; 3 at 1 μM, competition with ABP 2
  Log2 reporter intensity values: USP47: 1.001 and 0.9758 and 1.097
[2]; 3 at 4 μM, competition with ABP 2
  Log2 reporter intensity values: USP47: 0.9921 and 1.112 and 1.049
[2]; 3_1 μM
  Log2 reporter intensity values: 0.0008917 and -0.02426 and 0.09736
[2]; 3_4 μM
  Log2 reporter intensity values: -0.008057 and 0.1123 and 0.04861
[2]; 3 at 1 μM
  Log2 reporter intensity values: 0.001442 and -0.03527 and 0.1342
[2]; 3 at 4 μM
  Log2 reporter intensity values: -0.01151 and 0.1537 and 0.06863

## CC(=O)O/N=C1\C(=O)N(Cc2cc(Cl)ccc2Cl)c2ccc(Cl)cc21 [LDN]
[1]; LDN at 5 μM
  Log2 reporter intensity values: USP8: 1.057 and 1.015
[1]; LDN at 25 μM
  Log2 reporter intensity values: USP8: 1.052 and 0.9465
[1]; LDN at 5 μM, replicates A-C
  Log2 reporter intensity values: 0.08034 and 0.0217
[1]; LDN at 25 μM, replicates A-C
  Log2 reporter intensity values: 0.07275 and -0.07932
[1]; LDN_5 μM, replicates A-B (C NaN)
  Log2 reporter intensity values: 0.05482 and 0.0127
[1]; LDN_25 μM, replicates A-B (C NaN)
  Log2 reporter intensity values: 0.04927 and -0.05595
[2]; LDN at 5 μM, competition with ABP 2
  Log2 reporter intensity values: USP47: 0.9979 and 0.9926 and 1.029
[2]; LDN at 25 μM, competition with ABP 2
  Log2 reporter intensity values: USP47: 1.08 and 1.079 and 1.007
[2]; LDN at 5 μM
  Log2 reporter intensity values: -0.003055 and -0.01068 and 0.04147
[2]; LDN at 25 μM
  Log2 reporter intensity values: 0.1109 and 0.1092 and 0.01034
[2]; LDN_5 μM
  Log2 reporter intensity values: -0.002223 and -0.007484 and 0.02905
[2]; LDN_25 μM
  Log2 reporter intensity values: 0.07978 and 0.07849 and 0.007088
